Square brackets hold non-standard residues; d marks the D form. Peptide text beside a SMILES is read from it.
How the values were obtained:
[1] = system: tau (P301L mouse brain homogenate), proteinase K; experiment: Proteolysis of tau in P301L brain homogenate; format: biochemical, human tau with P301L mutation, JNPL3 mice; settings: 50 µM Aβ1-6A2V-TAT(D), P301L brain homogenate 30 µg protein/100 µL, 30 min at 37 °C with proteinase K (2.5–10 µg/ml)
[2] = system: tau (P301L mouse brain homogenate); experiment: Western blot of total tau level in P301L brain lysate; format: biochemical, human tau with P301L mutation, JNPL3 mice; settings: 50 µM, 2 h at 25 °C, 30 µg protein/100 µL, PBS pH 7.4, DAKO/actin band; mean ± SD, N = 3, p < 0.05
Source text: Male JNPL3 mice expressing 0N4R human tau with the P301L mutation (P301L) were obtained from Taconic Biosciences (New York, USA) (Tau Model 2508). Controls were non-transgenic (Non-tg) male mice with the same mixed C57BL/6, DBA/2, SW genetic background as P301L mice. Triple transgenic mice harboring human PS1(M146 V), APP(SW), and MAPT(P301L) transgenes, referred to as 3xTg-AD, were kindly provided by Dr. Oddo [34]. Male and female C57BL/6 J mice, referred to as wild type (WT), were purchased from Envigo (Italy).
Fig. 2 Effect of Aβ1-6A2V-TAT(D) on the toxicity caused in C. elegans by misfolded tau in P301L and TBI brain homogenates. A Brains from P301L mice were homogenized in 10 mM PBS, pH 7.4, and given to worms alone or in the presence of Aβ1-6A2V-TAT(D). B Worms were administered with brain homogenate (30 µg protein/100 worms/100 µL) in the absence or presence of Aβ1-6A2V-TAT(D) (0-200 µM). […] E Representative western blotting showing the total level of tau and tau quantification expressed as the mean volume of the DAKO band immunoreactivity/actin band. […] The reaction was then stopped, and samples were analyzed by western blot. […]
Lysates from brain homogenates of P301L mice (30 µg protein/100 µL) incubated for 2 h at 25°C with 50 µM Aβ1-6A2V-TAT(D), 50 µM Aβ1-6A2V(D), 50 µM TAT or 10 mM PBS, pH 7.4, were analyzed by immunoblotting using 10% SDS-PAGE gel and Western blotting analysis. […]

SMILES: CC(C)[C@@H](NC(=O)[C@H](N)CC(=O)O)C(=O)N[C@H](CCC(=O)O)C(=O)N[C@H](Cc1ccccc1)C(=O)N[C@H](CCCNC(=N)N)C(=O)N[C@H](Cc1c[nH]cn1)C(=O)NCC(=O)NCC(=O)NCC(=O)NCC(=O)NCC(=O)N[C@H](CCCNC(=N)N)C(=O)N[C@H](CCCCN)C(=O)N[C@H](CCCCN)C(=O)N[C@H](CCCNC(=N)N)C(=O)N[C@H](CCCNC(=N)N)C(=O)N[C@H](CCC(N)=O)C(=O)N[C@H](CCCNC(=N)N)C(=O)N[C@H](CCCNC(=N)N)C(=O)N[C@H](CCCNC(=N)N)C(=O)O [Aβ1-6A2V-TAT(D)] (H-[dD][dV][dE][dF][dR][dH]GGGGG[dR][dK][dK][dR][dR][dQ][dR][dR][dR]-OH; N-terminus assumed)
- Susceptibility of tau to degradation by proteases [1]: increased the susceptibility of tau to degradation by proteases, and this was particularly evident in the presence of proteinase K
- Total tau protein level in P301L brain homogenate [2]: significantly reduced the tau protein level

Source: paper PMC10611578, “Aβ1-6A2V(D) peptide, effective on Aβ aggregation, inhibits tau misfolding and protects the brain after traumatic brain injury” (Molecular Psychiatry, 2023)
